Results taken from US7008613B2, “Quaternary ammonium compounds” (Les Laboratoires Servier, priority 1999, dated 2006).

Assay: Tissue distribution study by measurement of radioactivity across whole-body sections
Assay type: in vivo, male Sprague-Dawley rats
Conditions: for radioactivity bound by the kidney (elimination organ): first minutes following the injection; for tissue distribution of radioactivity: target organs/tissues: labelled molecule, rat whole-body sections
Description: Pharmacokinetic Study: Tissue Distribution Study
This study was carried out with molecules labelled with ^14C. The tissue distribution study was carried out by direct measurement of the radioactivity across whole-body sections in accordance with the following method: male Sprague-Dawley rats were administered intravenously or orally with a dose of the labelled molecule. Then, at times ranging from 5 minutes to 24 hours after the administration, the animals were sacrificed by ether inhalation and frozen in liquid nitrogen.
Sections were then prepared using a cryomicrotome and, after desiccation, the distribution of radioactivity was measured using an image analyser.

Compound	radioactivity bound by the kidney (elimination organ)	tissue distribution of radioactivity: target organs/tissues (after injection)	affinity for cartilage (administration of the labelled molecule by the oral route)	time of maximum binding to cartilage (after injection)	affinity of cartilage versus surrounding tissues (after injection of labelled molecule)
C[N+](C)(C)CC(=O)N[C@H]1C(O)O[C@H](CO)[C@@H](O)[C@@H]1O.[Cl-] (stereo partly drawn) [Example 4, 2-(N,N,N-trimethylammonioacetamido)-2-deoxy-α,β-D-glucopyranose chloride]	binds significant amounts of radioactivity	cartilage, and to a lesser degree skin, are the only targets	–	–	–
O=C(C[n+]1ccccc1)N[C@H]1C(O)O[C@H](CO)[C@@H](O)[C@@H]1O.[Cl-] (stereo partly drawn) [Example 5, 2-(Pyridinioacetamido)-2-deoxy-α,β-D-glucopyranose chloride]	binds significant amounts of radioactivity	cartilage, and to a lesser degree skin, are the only targets	–	–	–
CN1C(C(=O)NCCC[N+](C)(C)C)=C(O)c2ccccc2S1(=O)=O.[I-] [Example 6, {3-[(4-Hydroxy-2-methyl-1,1-dioxide-2H-1,2-benzothiazin-3-yl)-carboxamido]propyl}trimethylammonium iodide]	–	–	very high affinity for cartilage	5 min	cartilage exhibits a far greater affinity than the surrounding tissues
N[C@H]1C(O)O[C@H](CO)[C@@H](O)[C@@H]1O (some centres unmarked) [glucosamine, reference compound]	–	the liver is the main target organ	–	–	–
